According to patent US20160030561A1, “Methods of Treating Pancreatic Cancer” (ONCOMED PHARMACEUTICALS, INC., priority 2013, published 2016):
Entries after “also recorded” stand apart in the source; their conditions may differ. Where a SMILES comes first, the peptide text is derived from it. [ ]: non-standard residue; d: D form. The star is where a group is joined. Nle = CCCC[C@H](N)C(=O)O; Cbz = O=C(OCc1ccccc1)*

Tests used:
[1] = tested on: breast or lung tumors with high NOTCH3 gene expression; experiment: In vivo xenograft assay, panel of breast or lung tumors with high NOTCH3 gene expression; design: species or system NOD-SCID mice; details: OMP-59R5 in combination with a chemotherapeutic agent (taxol); NOTCH3 cut-off value of 500
Procedure: (§1) Antibodies were dosed weekly at 20 mg/kg. Taxol was dosed at 10 mg/kg weekly.

[2] = tested on: UM-PE13 breast (NOTCH3 high expressing) tumor cells; experiment: In vivo xenograft assay, UM-PE13 breast tumor; design: species or system NOD-SCID mice; details: FIG. 1D
Procedure: as §1

[3] = tested on: OMP-PN17 pancreatic tumor; experiment: In vivo xenograft assay, OMP-PN17 pancreatic tumor; design: species or system NOD-SCID mice; details: FIG. 1B
Procedure: (§2) 20,000 OMP-PN8 tumor cells were injected into NOD-SCID mice. Tumors were allowed to grow 22 days until they had reached an average volume of 125 mm^3. […] Antibodies were dosed every other week at 40 mg/kg. Gemcitabine was dosed at 20 mg/kg weekly.
The ability of anti-NOTCH2/3 OMP-59R5 antibody to inhibit the in vivo growth of OMP-PN17 pancreatic tumor was determined using substantially identical methods.

OMP-PN8 tumor cells = experiment: In vivo xenograft assay, OMP-PN8 pancreatic tumor; design: species or system NOD-SCID mice
Procedure: as §2
Tumors were allowed to grow 26 days until they had reached an average volume of 110 mm^3. Tumor bearing mice were randomized into 3 groups (n=9 mice per group) and treated with control antibody, gemcitabine, plus ABRAXANE™ (albumin bound paclitaxel), or the combination of OMP-59R5 anti-NOTCH2/3 antibody and gemcitabine plus ABRAXANE™ OMP-59R5 was dosed every other week at 40 mg/kg. Gemcitabine was dosed at 10 mg/kg weekly and ABRAXANE™ at 30 mg/kg weekly. […] The top and bottom graphs show data obtained from the same experiment on different scales.

OMP-PN11 tumor cells = experiment: In vivo xenograft assay, OMP-PN11 pancreatic tumor; design: species or system NOD-SCID mice; details: FIG. 1C
Procedure: 50,000 OMP-PN11 tumor cells were injected into NOD-SCID mice. Tumors were allowed to grow 21 days until they had reached an average volume of 120 mm^3. […] Antibodies were dosed every other week at 40 mg/kg. Gemcitabine was dosed at 20 mg/kg weekly.

[4] = tested on: UM-T1 breast (NOTCH3 high expressing) tumor cells; experiment: In vivo xenograft assay, UM-T1 breast tumor; design: species or system NOD-SCID mice; details: FIG. 1E
Procedure: Tumors were allowed to grow 28 days until they had reached an average volume of 120 mm^3. […] Antibodies were dosed weekly at 20 mg/kg. Taxol was dosed at 10 mg/kg weekly.

[5] = tested on: OMP-Lu40 lung (NOTCH3 low expressing) tumor cells; experiment: In vivo xenograft assay, OMP-Lu40 lung tumor; design: species or system NOD-SCID mice; details: in combination with taxol; antibody 20 mg/kg weekly, taxol 10 mg/kg weekly; FIG. 1F
Procedure: as §1

[6] = tested on: OMP-Lu53 lung (NOTCH3 high expressing) tumor cells; experiment: In vivo xenograft assay, OMP-Lu53 lung tumor; design: species or system NOD-SCID mice; details: in combination with taxol; antibody 40 mg/kg every other week, taxol 10 mg/kg weekly; FIG. 1G
Procedure: Antibodies were dosed every other week at 40 mg/kg. Taxol was dosed at 10 mg/kg weekly.

[7] = tested on: Ras-transformed fibroblasts; details: cited from earlier work
intestinal adenomas = intestinal adenomas in Apc−/− (min) mice; cited from earlier work
[8] = tested on: melanoma and Kaposi sarcoma; details: cell lines and/or xenografts in mice from melanoma and Kaposi sarcoma; cited from earlier work
[9] = tested on: tumor cell lines that overexpressed NOTCH3; details: tumor cell lines that overexpressed NOTCH3, not those with minimal NOTCH3 expression; cited from earlier work
medulloblastoma = details: cited from earlier work
T-ALL = T-ALL animal model; cited from earlier work
[10] = tested on: pancreatic tumors with high NOTCH3 gene expression; experiment: In vivo xenograft assay, panel of pancreatic tumors with high NOTCH3 gene expression; design: species or system NOD-SCID mice; details: treatment with OMP-59R5 and gemcitabine; NOTCH3 cut-off value of 500
Procedure: as §2

[11] = as a single agent, 20 mg/kg weekly
[12] = in combination with taxol, antibody 20 mg/kg weekly, taxol 10 mg/kg weekly

OMP-59R5: 59R5 IgG2 anti-NOTCH2/3 antibody, heavy and light chain of SEQ ID NO:30 and SEQ ID NO:33; ATCC PTA-10170
Breast or lung tumors with high NOTCH3 gene expression responsive [1]: 5 out of 14
UM-PE13 tumor growth [2, 11]: strongly inhibited
UM-PE13 tumor growth [2, 12]: strongly inhibited
OMP-PN17 tumor growth ([3]; as a single agent): strongly inhibited
OMP-PN17 tumor growth ([3]; in combination with gemcitabine): strongly inhibited
OMP-PN8 tumor growth (OMP-PN8 tumor cells; as a single agent, 40 mg/kg every other week, FIG. 1A): strongly inhibited
Activity on OMP-PN8 tumor growth compared with gemcitabine plus ABRAXANE alone (OMP-PN8 tumor cells; in combination with gemcitabine plus ABRAXANE, FIG. 9): more active
OMP-PN8 tumor growth (OMP-PN8 tumor cells; in combination with gemcitabine plus ABRAXANE, OMP-59R5 40 mg/kg every other week, gemcitabine 10 mg/kg weekly, ABRAXANE 30 mg/kg weekly, FIG. 9): strongly inhibited; also recorded: active
OMP-PN8 tumor growth (OMP-PN8 tumor cells; in combination with gemcitabine, antibody 40 mg/kg every other week, gemcitabine 20 mg/kg weekly, FIG. 1A): strongly inhibited
OMP-PN11 tumor growth (OMP-PN11 tumor cells; as a single agent, 40 mg/kg every other week): no effect
OMP-PN11 tumor growth (OMP-PN11 tumor cells; in combination with gemcitabine, antibody 40 mg/kg every other week, gemcitabine 20 mg/kg weekly): no effect
UM-T1 tumor growth [4, 11]: no effect
UM-T1 tumor growth [4, 12]: no effect
OMP-Lu40 tumor growth [5]: strongly inhibited
OMP-Lu53 tumor growth [6]: no effect

CCC(C)C(NC(=O)OCc1ccccc1)C(=O)NC(C=O)CC(C)C (stereo not drawn) [IL-X, cbz-IL-CHO] (Cbz-Ile-Leu-aldehyde; configuration not given here)
Antineoplastic activity [7]: NOTCH1-dependent antineoplastic activity

dibenzazepine
Epithelial cell proliferation and goblet cell differentiation (intestinal adenomas): inhibit epithelial cell proliferation and induce goblet cell differentiation

CCCC[C@@H](C=O)NC(=O)[C@H](CC(C)C)NC(=O)[C@H](CC(C)C)NC(=O)OCc1ccccc1 [z-Leu-leu-Nle-CHO] (Cbz-Leu-Leu-[Nle]-aldehyde)
Tumor growth [8]: suppress tumor growth
Cell proliferation and apoptosis [9]: suppression of cell proliferation and induction of apoptosis

C[C@H](NC(=O)Cc1cc(F)cc(F)c1)C(=O)N[C@H](C(=O)OC(C)(C)C)c1ccccc1 [DAPT, N-[N-(3,5-difluorophenacetyl)-L-alanyl]-S-phenylglycine t-butyl ester]
Medulloblastoma growth (medulloblastoma): marked reduction
Cell cycle arrest and apoptosis (T-ALL): induced G0-G1 cell cycle arrest and apoptosis

OMP-59R5 + gemcitabine: combination treatment with OMP-59R5 anti-NOTCH2/3 antibody and gemcitabine
Pancreatic tumors with high NOTCH3 gene expression responsive in vivo [10]: 9 out of the 10
